Assay results: patent publication US11518765B2, “Substituted pyrimidine derivatives useful in the treatment of autoimmune diseases” (THE PROVOST, FELLOWS, FOUNDATION SCHOLARS, AND THE OTHER …, priority 2015, dated 2022)

How the values were obtained:
Assay type in all cases: in vivo, mice (C57BL/6)
[1] = tested on: chronic monophasic EAE disease in mice; assay: chronic monophasic EAE disease in mice, EAE score (disease severity); conditions: FIG. 1
Protocol: (§1) To assess the potential of these compounds in vivo, a chronic monophasic EAE disease in mice was induced before treatment with the new chemical entity (NCE). EAE Disease was induced in 8-10 week old female mice (C57BL/6) by subcutaneous (s.c.) injection of 200 μl emulsion containing 150 μg […] peptide (Genscript) in Complete Freund's Adjuvant (CFA; containing 5 mg/ml heat-inactivated Mycobacterium tuberculosis). On the same day, mice were administered 500 ng Pertussis Toxin (Kaketsuken, Japan) intraperitoneally (i.p.) and again two days later. Disease severity was recorded every 24 hours: 0-Normal; 1-flaccid tail; 2-imparied/wobbly gait; 3-complete hind limb weakness; 4-hind limb and forelimb paralysis; 5-moribund state/dead. Protocol is based on the Nature Protocols for Active induction of experimental allergic encephalomyelitis, which includes the scoring methodology: • Stromnes I M, Goverman J M (2006) Active induction of experimental allergic encephalomyelitis. Nat Protoc. 1(4):1810-9.
The EAE score relates to an assessment of disease progression with respect to issues like tail paralysis and limb paralysis, a higher score is a worse condition. A score of 1 indicates decreased tail tone, a score of 2 indicates hind leg weakness (paraparesis), a score of 3 indicates hind limb paralysis and/or incontinence. Note that the untreated animals have a continuous and progressive worsening of disease.

[2] = tested on: chronic monophasic EAE disease in mice; assay: motor coordination and hind-limb strength: ability of EAE mice to cross a horizontal bar; conditions: EAE diseased mice, within 4 treatments; FIG. 3
Protocol: as §1
(§2) This contrasts with the sustained drop in body weight of non-treated EAE diseased animals to a level 86.4% that of controls at 21 dpi (17.8 grams versus 20.6 grams). Motor coordination and hind-limb strength were also evaluated by the ability of mice to cross a horizontal bar (FIG. 3). Non-diseased animals crossed the bar with an average time of 4.3±0.57 seconds.

[3] = body weight of EAE diseased mice; conditions: treated EAE animals, FIG. 2
Protocol: as §1, §2

Cl.Nc1nc2[nH]cc(CNCCCc3ccccc3)c2c(=O)[nH]1 [Compound I, N-((2-amino-4-oxo-4,7-dihydro-3H-pyrrolo[2,3-d]pyrimidin-5-yl)methyl)-3-phenylpropan-1-aminium chloride]
EAE scoring after treatment ([1]; 30 mg/kg, i.p., after 4 daily treatments): disease free
time to reversal of symptoms (EAE score) ([1]; highest dosage given, 30 mg/kg, i.p.): ≤ 24 h
disease progression (EAE score) ([1]; lower doses, animals slower to respond): halted and reversed
performance crossing a horizontal bar [2]: fully restored the performance of EAE diseased mice to control levels
body weight ([3]; 21 dpi, controls 20.6 grams): 19.9 grams
body weight level relative to controls ([3]; 21 days post inoculation (dpi)): 96.6%
